In patent US12133855B2, “Lipid-like nanocomplexes and uses thereof” (Trustees of Tufts College, priority 2018, dated 2024):

How the values were obtained:
[1] = system: HeLa cells; experiment: GFP mRNA delivery (GFP+ cells); assay type: cell-based; conditions: LNP/mRNA=10/1; [mRNA]=0.86 μg mL^−1; 24 h exposure
Source text: Messenger RNA delivery has great potentials for cancer therapy, protein replacement therapy and neurological disorder treatments.^42 The intracellular delivery of mRNA using OCholB LNPs was studied using GFP mRNA and different cell lines (HeLa, B16F10, HEK-293, NIH/3T3 and Jurkat). The weight ratio of LNP/mRNA was optimized at first using HeLa cells. […] The weight ratio of LNP/mRNA=10/1 was then chose for the following mRNA delivery studies. […] Then the intracellular delivery efficiencies of all fully substituted OCholB LNPs were tested against HeLa cells, and Lpf2k and naked GFP mRNA were used as controls (LNP/mRNA=10/1; [mRNA]=0.86 μg mL^−1; 24 h exposure). […] As to the OCholB LNPs, 75-OCholB (62.0% of GFP^+ cells), 76-OCholB (79.8%), 77-OCholB (73.5%), 78-OCholB (67.1%), 80-OCholB (55.6%), 81-OCholB (51.6%) and 304-OCholB (52.1%) are all determined to be effective. Typical fluorescent images of mRNA/LNPs (mRNA/75-OCholB, mRNA/76-OCholB and mRNA/77-OCholB) treated HeLa cells are shown in FIG. 14C. Comparing to untreated HeLa cells, strong green fluorescent signals were recoded from nanoparticles incubated cells, which is consistent with the flow cytometry data as shown in FIG. 14D. Meanwhile, both 87-OCholB (6.1%) and 90-OCholB (2.5%) are found to be inefficient for GFP mRNA delivery into HeLa cells, which is consistent with the internalization studies using NR (FIG. 12C) and (−30)GFP-Cre protein (FIG. 12F) as the fluorescent reporters.

[2] = system: Jurkat (human T lymphocyte cells); experiment: GFP mRNA delivery (GFP+ cells); assay type: cell-based; conditions: LNP/mRNA=10/1, [mRNA]=0.86 μg mL^−1, 24 h
Procedure: To examine the delivery spectrum of the newly developed LNPs, the GFP mRNA loaded OCholB LNPs were then challenged against other four types of cell lines. B16F10 (mouse melanoma cells), HEK 293 (human embryonic kidney cells), NIH 3T3 (mouse embryonic fibroblast cells) and Jurkat (human T lymphocyte cells) cells were tested (LNP/mRNA=10/1; [mRNA]=0.86 μg mL^−1; 24 h exposure) and the results are shown in FIG. 14D. As the positive control, Lpf2k turned out to be very efficient to deliver GFP mRNA into B16F10 (63.2% of GFP^+ cells), HEK 293 (80.1%) and NIH 3T3 (70.1%) cells, while slightly less efficient to Jurkat cell (28.7%), which is usually considered to be one of the most difficult-to-transfect cell lines. […] For example, 63.0%, 60.9%, 54.1% and 50.1% of GFP^+ cells were determined from mRNA/75-OCholB treated B16F10, HEK 293, NIH 3T3 and Jurkat cells; and the numbers for mRNA/76-OCholB treated cells were 70.7%, 75.8%, 24.1% and 7.7%, respectively. It was obvious that not only the types of lipidoids, but also the target cell lines could have huge impacts on the delivery efficacy. Overall, the positive control, Lpf2k, is a relatively high-activity broad-spectrum transfection reagent; most of the OCholB LNPs (6 out of 9) are also effective broad-spectrum transfection reagents under the tested conditions. […] It was expected that through further formulation optimization, such as adding excipients (helper lipids like small molecular phospholipids (e.g. DOPE and DSPC) and macromolecules lipids (e.g. PEG-DSPE and PEG-Ceramide)) into the LNPs and/or using more controllable self-assembly procedures, improved transfection efficiency of the fully substituted OCholB LNPs could be achieved.

| SMILES | GFP^+ cells [1] | GFP^+ cells [2] | GFP^+ cells ([2]; listed as mRNA/75-OCholB) |
| --- | --- | --- | --- |
| CCN(CC)CCN(CCC(=O)OCCSSCCNC(=O)OC1CCC2(C)C(=CCC3C2CCC2(C)C(C(C)CCCC(C)C)CCC32)C1)CCC(=O)OCCSSCCNC(=O)OC1CCC2(C)C(=CCC3C2CCC2(C)C(C(C)CCCC(C)C)CCC32)C1 (stereo not drawn) [Lipidoid 75-OCholB] | 62.0% | particular advantages over Lpf2k | 50.1% |
| CC(C)CCCC(C)C1CCC2C3CC=C4CC(OC(=O)NCCSSCCOC(=O)CCN(CCC(=O)OCCSSCCNC(=O)OC5CCC6(C)C(=CCC7C6CCC6(C)C(C(C)CCCC(C)C)CCC76)C5)CCN5CCCC5)CCC4(C)C3CCC12C (stereo not drawn) [Lipidoid 76-OCholB] | 79.8% | 7.7% | – |
| CC(C)CCCC(C)C1CCC2C3CC=C4CC(OC(=O)NCCSSCCOC(=O)CCN(CCC(=O)OCCSSCCNC(=O)OC5CCC6(C)C(=CCC7C6CCC6(C)C(C(C)CCCC(C)C)CCC76)C5)CCC5CCCN5C)CCC4(C)C3CCC12C (stereo not drawn) [Lipidoid 77-OCholB] | 73.5% | particular advantages over Lpf2k | – |
| CC(C)CCCC(C)C1CCC2C3CC=C4CC(OC(=O)NCCSSCCOC(=O)CCN(CCC(=O)OCCSSCCNC(=O)OC5CCC6(C)C(=CCC7C6CCC6(C)C(C(C)CCCC(C)C)CCC76)C5)CCN(C)C)CCC4(C)C3CCC12C (stereo not drawn) [Lipidoid 78-OCholB] | 67.1% | particular advantages over Lpf2k | – |
| CC(C)CCCC(C)C1CCC2C3CC=C4CC(OC(=O)NCCSSCCOC(=O)CCN(CCCN(C)C)CCC(=O)OCCSSCCNC(=O)OC5CCC6(C)C(=CCC7C6CCC6(C)C(C(C)CCCC(C)C)CCC76)C5)CCC4(C)C3CCC12C (stereo not drawn) [Lipidoid 80-OCholB] | 55.6% | – | – |
| CCN(CC)CCCN(CCC(=O)OCCSSCCNC(=O)OC1CCC2(C)C(=CCC3C2CCC2(C)C(C(C)CCCC(C)C)CCC32)C1)CCC(=O)OCCSSCCNC(=O)OC1CCC2(C)C(=CCC3C2CCC2(C)C(C(C)CCCC(C)C)CCC32)C1 (stereo not drawn) [Lipidoid 81-OCholB] | 51.6% | – | – |
| CC(C)CCCC(C)C1CCC2C3CC=C4CC(OC(=O)NCCSSCCOC(=O)CCN(C)CCN(CCN(C)CCC(=O)OCCSSCCNC(=O)OC5CCC6(C)C(=CCC7C6CCC6(C)C(C(C)CCCC(C)C)CCC76)C5)CCN(C)CCC(=O)OCCSSCCNC(=O)OC5CCC6(C)C(=CCC7C6CCC6(C)C(C(C)CCCC(C)C)CCC76)C5)CCC4(C)C3CCC12C (stereo not drawn) [Lipidoid 304-OCholB] | 52.1% | – | – |
